The supplement of paper PMC4862054

Columns and labels:
Test in all cases: normalised viability (% of control), CellTiter-Blue; higher = more viable cells (100 = DMSO, 0 = benzethonium chloride kill control)
Details in all cases: incubation time: 72 h
[1] = system: BT-474
Description: (§1)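 DSRT, CellTiter-Blue viability, 72 h incubation. Signal is normalised to DMSO and benzethonium chloride controls. Value is the normalised response at dose 1.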

[2] = system: BT-549
Description: as §1

[3] = system: CAL-120
Description: as §1

[4] = system: CAL-148
Description: as §1

[5] = system: CAL-51
Description: as §1

[6] = system: CAL-85-1
Description: as §1

[7] = system: DU-4475
Description: as §1

[8] = system: HCC1143
Description: as §1

[9] = system: HCC1599
Description: as §1

[10] = system: HCC1937
Description: as §1

[11] = system: HDQ-P1
Description: as §1

[12] = system: Hs578T
Description: as §1

[13] = system: MDA-MB-231
Description: as §1

[14] = system: MDA-MB-436
Description: as §1

[15] = system: MDA-MB-453
Description: as §1

[16] = system: MDA-MB-468
Description: as §1

[17] = system: MFM-223
Description: as §1

[18] = system: SK-BR-3
Description: as §1

In the case of N[C@@H](Cc1ccc(N(CCCl)CCCl)cc1)C(=O)O [Melphalan] (0.099 nM), the normalised viability [1] is reported as 85.2%, the normalised viability [2] is reported as 107% and the normalised viability [3] is reported as 82.9%. The normalised viability [4] was 112%, the normalised viability [5] was 100% and the normalised viability [6] was 85.7%. It also gave a normalised viability [7] of 99.8%, a normalised viability [8] of 84.7% and a normalised viability [9] of 96.1%. For the same molecule, the normalised viability [10] was 87.2%, the normalised viability [11] was 107% and the normalised viability [12] was 93.8%. The normalised viability [13] was 95.1%, the normalised viability [14] was 89.8% and the normalised viability [15] was 97.8%. For the same molecule, the normalised viability [16] was 102%, the normalised viability [17] was 94.3% and the normalised viability [18] was 94%.
Cc1c(C(=O)Nc2ccc(N3C[C@@H](C)O[C@@H](C)C3)nc2)cccc1-c1ccc(OC(F)(F)F)cc1 [NVP-LDE225] (1 nM) showed a normalised viability [1] of 109%, a normalised viability [2] of 87.2% and a normalised viability [3] of 93.1%. The normalised viability [4] was 92.9%, the normalised viability [5] was 103% and the normalised viability [6] was 99.5%. It also gave a normalised viability [7] of 102%, a normalised viability [8] of 105% and a normalised viability [9] of 85.8%. It also gave a normalised viability [10] of 96.4%, a normalised viability [11] of 70.9% and a normalised viability [12] of 111%. It also gave a normalised viability [13] of 98%, a normalised viability [14] of 79.5% and a normalised viability [15] of 108%. For the same molecule, the normalised viability [16] was 129%, the normalised viability [17] was 96.4% and the normalised viability [18] was 91.5%.
